{
  "source": "patent US20050112573A1",
  "about": "“Method of detecting toxic substance” (priority 2001, published 2005)",
  "system": "yeast genes (level of expressed mRNA)",
  "assay": "DNA chip analysis of expressed mRNA of yeast genes after 2 h culture with a toxic chemical substance",
  "type": "cell-based, Saccharomyces cerevisiae S288C",
  "method_in_brief": "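S. cerevisiae S288C in YPD at 25 °C was exposed at log phase for 2 h to a growth-inhibiting, non-lethal concentration of the chemical. Poly(A) mRNA was reverse-transcribed with Cy3- or Cy5-dUTP and hybridized to a whole-genome yeast DNA chip (65 °C, >12 h). Values are fluorescence ratios versus untreated cells.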",
  "data": [
    {"substance": "manganese ethylenebis(dithiocarbamate) [(8)]", "values": [
      {"measurement": "The level of expressed mRNA in the presence of chemical substance/", "setting": "yeast gene YFL010C, ratio to control without chemical substance, 2 h culture", "value": 1.0},
      {"measurement": "The level of expressed mRNA in the presence of chemical substance/", "setting": "yeast gene YFL024C, ratio to control without chemical substance, 2 h culture", "value": 0.9},
      {"measurement": "The level of expressed mRNA in the presence of chemical substance/The level of expressed mRNA in the absence of chemical substance", "setting": "yeast gene YFL028C", "value": 1.5},
      {"measurement": "The level of expressed mRNA in the presence of chemical substance/", "setting": "yeast gene YFL032W, ratio to control without chemical substance, 2 h culture", "value": 0.4},
      {"measurement": "The level of expressed mRNA in the presence of chemical substance/The level of expressed mRNA in the absence of chemical substance", "setting": "yeast gene YFL043C", "value": 1.0},
      {"measurement": "The level of expressed mRNA in the presence of chemical substance/in the absence of chemical substance", "setting": "yeast gene YGL035C", "value": 1.3},
      {"measurement": "The level of expressed mRNA in the presence of chemical substance/", "setting": "yeast gene YGL037C, ratio to control without chemical substance, 2 h culture", "value": 1.2},
      {"measurement": "The level of expressed mRNA in the presence of chemical substance/", "setting": "yeast gene YGL047W, ratio to control without chemical substance, 2 h culture", "value": 1.1},
      {"measurement": "The level of expressed mRNA in the presence of chemical substance/", "setting": "yeast gene YGL053W, ratio to control without chemical substance, 2 h culture", "value": 1.2},
      {"measurement": "The level of expressed mRNA in the presence of chemical substance/", "setting": "yeast gene YGL121C, ratio to control without chemical substance, 2 h culture", "value": 3.0},
      {"measurement": "The level of expressed mRNA in the presence of chemical substance/The level of expressed mRNA in the absence of chemical substance", "setting": "yeast gene YGL158W", "value": 1.3},
      {"measurement": "The level of expressed mRNA in the presence of chemical substance/", "setting": "yeast gene YGL199C, ratio to control without chemical substance, 2 h culture", "value": 0.7},
      {"measurement": "The level of expressed mRNA in the presence of chemical substance/The level of expressed mRNA in the absence of chemical substance", "setting": "yeast gene YGL229C", "value": 0.7},
      {"measurement": "The level of expressed mRNA in the presence of chemical substance/", "setting": "yeast gene YGR101W, ratio to control without chemical substance, 2 h culture", "value": 0.8},
      {"measurement": "The level of expressed mRNA in the presence of chemical substance/", "setting": "yeast gene YGR110W, ratio to control without chemical substance, 2 h culture", "value": 1.5},
      {"measurement": "The level of expressed mRNA in the presence of chemical substance/", "setting": "yeast gene YGR130C, ratio to control without chemical substance, 2 h culture", "value": 0.9},
      {"measurement": "The level of expressed mRNA in the presence of chemical substance/The level of expressed mRNA in the absence of chemical substance", "setting": "yeast gene YGR136W", "value": 1.3},
      {"measurement": "The level of expressed mRNA in the presence of chemical substance/", "setting": "yeast gene YGR154C, ratio to control without chemical substance, 2 h culture", "value": 1.7},
      {"measurement": "The level of expressed mRNA in the presence of chemical substance/The level of expressed mRNA in the absence of chemical substance", "setting": "yeast gene YGR189C", "value": 1.0},
      {"measurement": "The level of expressed mRNA in the presence of chemical substance/The level of expressed mRNA in the absence of chemical substance", "setting": "yeast gene YGR213C", "value": 2.0},
      {"measurement": "The level of expressed mRNA in the presence of chemical substance/", "setting": "yeast gene YGR221C, ratio to control without chemical substance, 2 h culture", "value": 1.1},
      {"measurement": "The level of expressed mRNA in the presence of chemical substance/The level of expressed mRNA in the absence of chemical substance", "setting": "yeast gene YGR257C", "value": 1.0},
      {"measurement": "The level of expressed mRNA in the presence of chemical substance/in the absence of chemical substance", "setting": "yeast gene YGR287C", "value": 1.3},
      {"measurement": "The level of expressed mRNA in the presence of chemical substance/The level of expressed mRNA in the absence of chemical substance", "setting": "yeast gene YHR004C", "value": 0.9},
      {"measurement": "The level of expressed mRNA in the presence of chemical substance/The level of expressed mRNA in the absence of chemical substance", "setting": "yeast gene YHR071W", "value": 1.7},
      {"measurement": "The level of expressed mRNA in the presence of chemical substance/", "setting": "yeast gene YHR138C, ratio to control without chemical substance, 2 h culture", "value": 1.4},
      {"measurement": "The level of expressed mRNA in the presence of chemical substance/The level of expressed mRNA in the absence of chemical substance", "setting": "yeast gene YHR139C", "value": 1.3},
      {"measurement": "The level of expressed mRNA in the presence of chemical substance/The level of expressed mRNA in the absence of chemical substance", "setting": "yeast gene YHR142W", "value": 1.3},
      {"measurement": "The level of expressed mRNA in the presence of chemical substance/", "setting": "yeast gene YHR199C, ratio to control without chemical substance, 2 h culture", "value": 1.0},
      {"measurement": "The level of expressed mRNA in the presence of chemical substance/", "setting": "yeast gene YIL023C, ratio to control without chemical", "value": 0.7},
      {"measurement": "The level of expressed mRNA in the presence of chemical substance/", "setting": "yeast gene YIL041W, ratio to control without chemical substance, 2 h culture", "value": 0.9},
      {"measurement": "The level of expressed mRNA in the presence of chemical substance/", "setting": "yeast gene YIL087C, ratio to control without chemical substance, 2 h culture", "value": 1.1},
      {"measurement": "The level of expressed mRNA in the presence of chemical substance/The level of expressed mRNA in the absence of chemical substance", "setting": "yeast gene YIL123W", "value": 0.6},
      {"measurement": "The level of expressed mRNA in the presence of chemical substance/The level of expressed mRNA in the absence of chemical substance", "setting": "yeast gene YIL140W", "value": 0.7},
      {"measurement": "The level of expressed mRNA in the presence of chemical substance/", "setting": "yeast gene YJL057C, ratio to control without chemical substance, 2 h culture", "value": 1.5},
      {"measurement": "The level of expressed mRNA in the presence of chemical substance/", "setting": "yeast gene YJL066C, ratio to control without chemical substance, 2 h culture", "value": 0.8},
      {"measurement": "The level of expressed mRNA in the presence of chemical substance/in the absence of chemical substance", "setting": "yeast gene YJL070C", "value": 1.1},
      {"measurement": "The level of expressed mRNA in the presence of chemical substance/The level of expressed mRNA in the absence of chemical substance", "setting": "yeast gene YJL073W", "value": 1.0},
      {"measurement": "The level of expressed mRNA in the presence of chemical substance/", "setting": "yeast gene YJL082W, ratio to control without chemical substance, 2 h culture", "value": 0.9},
      {"measurement": "The level of expressed mRNA in the presence of chemical substance/The level of expressed mRNA in the absence of chemical substance", "setting": "yeast gene YJL089W", "value": 1.1},
      {"measurement": "The level of expressed mRNA in the presence of chemical substance/The level of expressed mRNA in the absence of chemical substance", "setting": "yeast gene YJL116C", "value": 1.8},
      {"measurement": "The level of expressed mRNA in the presence of chemical substance/", "setting": "yeast gene YJL151C, ratio to control without chemical substance, 2 h culture", "value": 0.8},
      {"measurement": "The level of expressed mRNA in the presence of chemical substance/", "setting": "yeast gene YJL152W, ratio to control without chemical substance, 2 h culture", "value": 0.7},
      {"measurement": "The level of expressed mRNA in the presence of chemical substance/", "setting": "yeast gene YJL161W, ratio to control without chemical substance, 2 h culture", "value": 1.4},
      {"measurement": "The level of expressed mRNA in the presence of chemical substance/in the absence of chemical substance", "setting": "yeast gene YJL167W", "value": 1.5},
      {"measurement": "The level of expressed mRNA in the presence of chemical substance/", "setting": "yeast gene YJL171C, ratio to control without chemical substance, 2 h culture", "value": 0.9},
      {"measurement": "The level of expressed mRNA in the presence of chemical substance/in the absence of chemical substance", "setting": "yeast gene YJL216C", "value": 1.9},
      {"measurement": "The level of expressed mRNA in the presence of chemical substance/The level of expressed mRNA in the absence of chemical substance", "setting": "yeast gene YJR004C", "value": 0.4},
      {"measurement": "The level of expressed mRNA in the presence of chemical substance/", "setting": "yeast gene YJR008W, ratio to control without chemical substance, 2 h culture", "value": 1.1},
      {"measurement": "The level of expressed mRNA in the presence of chemical substance/", "setting": "yeast gene YJR054W, ratio to control without chemical", "value": 1.6},
      {"measurement": "The level of expressed mRNA in the presence of chemical substance/The level of expressed mRNA in the absence of chemical substance", "setting": "yeast gene YJR086W", "value": 1.1},
      {"measurement": "The level of expressed mRNA in the presence of chemical substance/The level of expressed mRNA in the absence of chemical substance", "setting": "yeast gene YKL008C", "value": 1.2},
      {"measurement": "The level of expressed mRNA in the presence of chemical substance/The level of expressed mRNA in the absence of chemical substance", "setting": "yeast gene YKL013C", "value": 0.9},
      {"measurement": "The level of expressed mRNA in the presence of chemical substance/The level of expressed mRNA in the absence of chemical substance", "setting": "yeast gene YKL039W", "value": 0.8},
      {"measurement": "The level of expressed mRNA in the presence of chemical substance/The level of expressed mRNA in the absence of chemical substance", "setting": "yeast gene YKL041W", "value": 1.6},
      {"measurement": "The level of expressed mRNA in the presence of chemical substance/", "setting": "yeast gene YKL071W, ratio to control without chemical substance, 2 h culture", "value": 24.7}
    ]}
  ]
}
